Values of other authors as cited in patent US9273049B2 (North-West University, priority 2009, dated 2016).

Settings: Class II = high permeability, low solubility

Cc1ccnc2c1NC(=O)c1cccnc1N2C1CC1 [nevirapine, 11-cyclopropyl1-5,11-dihydro-4-methyl-6H-dipyrido[3,2-b: 2′,3′-e][1,4]diazepin-6-one]
FDA classification: Class II
